These results are taken from US10493108B2, “Non-invasive in vivo imaging and methods for treating diabetes” (Biocrine AB, priority 2007, dated 2019).

For data set [1], the system named is β-cells of RIP-GFP islet grafts. Particulars: mouse, in vivo.
A short description of data set [2]: Blood glucose after intravenous alloxan. Particulars: alloxan 75 mg/kg i.v., after 24 h, n=6.
The next data set deals with islet cells. As to conditions: direct mechanism on islet cells; cited from earlier work.
Another data set relates to islet cells (β-cells). Briefly: In vivo recording of [Ca2+]i changes in islets engrafted in the anterior chamber of the eye (Fluo-4/Fura-Red ratio). On the set-up: species or system mouse. Particulars: glibenclamide 1 mg/kg i.v.; remained high throughout the recording.
Data set [3] is described as follows: Blood glucose after intravenous glibenclamide. Particulars: glibenclamide intravenously (1 mg/kg, tail vein); data not shown. In kind it is in vivo, mouse.

For `O=C1NC(=O)C(=O)C(=O)N1` [alloxan], in data set [1], the “GFP fluorescence of islet grafts” value is reported as “substantial loss of GFP fluorescence” and the “annexin V-APC labelling of islet grafts” value is recorded as “strong labelling”. This compound also displayed a blood glucose concentration in data set [2] of 25.0 ± 1.3 mmol/L.

With `FC(F)OC(Cl)C(F)(F)F` (stereo not drawn) [Isoflurane], in the data set on islet cells, the “glucose stimulated insulin release” value is “inhibit”.

`COc1ccc(Cl)cc1C(=O)NCCc1ccc(S(=O)(=O)NC(=O)NC2CCCCC2)cc1` [glibenclamide]: the “[Ca2+]i in islet cells (Fluo-4/Fura-Red fluorescence ratio)” value with islet cells (β-cells) is listed as “prominent rises”. Further, the blood glucose levels result in data set [3] is recorded as “decreased blood glucose levels”.
